This is an account of results in ChEMBL document CHEMBL4028893, “Discovery and Optimization of Potent, Cell-Active Pyrazole-Based Inhibitors of Lactate Dehydrogenase (LDH)” (J Med Chem, 2017).

Data set [1] is described as follows: Inhibition of pig heart MDH using malic acid as substrate preincubated for 10 mins followed by substrate addition measured up to 5 mins by resorufin-based fluorescence assay. Details: species or system Sus scrofa.
Data set [2] has as its target Isocitrate dehydrogenase [NADP] cytoplasmic (Homo sapiens, UniProt O75874). The data set is described as follows: Inhibition of wild type IDH1 (unknown origin) using isocitrate as substrate preincubated for 30 mins followed by substrate addition in presence of NADP+ measured up to 5 mins by resorufin-based fluorescence assay.
Data set [3] in a line: Drug level in human A673 cells by LC-MS/MS analysis. Type of data set: ADME, cell-based.
Data set [4] in a line: Drug level in human MIAPaCa2 cells by LC-MS/MS analysis. It is filed as ADME, cell-based. Particulars: mia paca-2.
Data set [5] concerns A673. Kind of data set: Cytotoxicity against human A673 cells after 48 hrs by CellTiter-Glo assay. Particulars: A673, 48 h. A general note: Cellular ATP, detected with luciferase, serves as a proxy for viable cell number.
Data set [6] addresses L-lactate dehydrogenase B chain (Homo sapiens, UniProt P07195). The data set is described as follows: Inhibition of human erythrocytes LDHB using sodium pyruvate as substrate after 5 mins in presence of […] by diaphorase/resazurin based fluorescence assay.
The target of data set [7] is T1, L-lactate dehydrogenase A chain (Homo sapiens, UniProt P00338).
Description: Inhibition of human liver LDHA using sodium pyruvate as substrate after 5 mins in presence of NAPDH and in absence of EDTA by diaphorase/resazurin based fluorescence assay
Data set [8] has as its target T1, L-lactate dehydrogenase A chain. The source holds these as a separate data set.
Description: Inhibition of human liver LDHA using sodium pyruvate as substrate after 5 mins in presence of NAPDH and EDTA by diaphorase/resazurin based fluorescence assay
In data set [9] the target is T2, L-lactate dehydrogenase (Homo sapiens, UniProt V9HWB9). Kind of data set: Inhibition of LDH in human MIAPaCa2 cells assessed as reduction in lactate production preincubated for 2 hrs measured after 30 mins by high throughput fluorescence assay. It is filed as cell-based.
The target in data set [10] is T2, L-lactate dehydrogenase. Kind of data set: Inhibition of LDH in human A673 cells assessed as reduction in lactate production preincubated for 2 hrs measured after 30 mins by high throughput fluorescence assay. Type of data set: cell-based.

Active and inactive are the calls of the source. No cut-off for these calls is given here. A value given as a limit tells only on which side of the number the result lay.

L-lactate dehydrogenase B chain, sequence (P07195 whole entry): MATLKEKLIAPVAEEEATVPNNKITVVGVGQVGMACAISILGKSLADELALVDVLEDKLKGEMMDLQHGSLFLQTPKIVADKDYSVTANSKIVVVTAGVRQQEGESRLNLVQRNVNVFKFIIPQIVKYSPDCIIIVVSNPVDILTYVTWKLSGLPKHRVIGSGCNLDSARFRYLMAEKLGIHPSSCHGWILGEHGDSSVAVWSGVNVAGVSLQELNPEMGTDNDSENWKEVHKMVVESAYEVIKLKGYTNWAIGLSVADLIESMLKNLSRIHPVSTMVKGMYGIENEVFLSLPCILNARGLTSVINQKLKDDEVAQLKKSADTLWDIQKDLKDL
Isocitrate dehydrogenase [NADP] cytoplasmic, sequence (O75874 whole entry): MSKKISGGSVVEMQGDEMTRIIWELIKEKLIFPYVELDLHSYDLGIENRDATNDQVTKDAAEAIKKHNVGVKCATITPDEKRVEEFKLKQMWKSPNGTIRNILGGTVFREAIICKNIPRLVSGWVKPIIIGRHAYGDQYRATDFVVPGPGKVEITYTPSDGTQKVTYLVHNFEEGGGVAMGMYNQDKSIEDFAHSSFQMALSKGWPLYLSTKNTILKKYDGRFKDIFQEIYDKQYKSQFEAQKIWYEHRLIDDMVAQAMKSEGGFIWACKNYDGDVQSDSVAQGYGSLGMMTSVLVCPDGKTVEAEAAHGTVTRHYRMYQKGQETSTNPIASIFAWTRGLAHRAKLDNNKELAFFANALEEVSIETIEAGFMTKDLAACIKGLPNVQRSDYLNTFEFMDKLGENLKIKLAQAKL

Consider `NS(=O)(=O)c1ccc(Cc2cn(-c3nc(C(=O)O)cs3)nc2-c2cccc(-c3ccccc3)c2)cc1`, for which the figures for the IC50 in [1] and in [2] were 48.6 µM and 47.4 µM, respectively. Moreover, the Drug uptake entry in data set [3] and in [4] was “Active” each time.
In the case of `NS(=O)(=O)c1ccc(Cc2cn(-c3nc(C(=O)O)cs3)nc2-c2ccc(F)c(F)c2)cc1`, the IC50 (as a rule, the concentration at which inhibition is half-maximal) was more than 57 µM in data set [5]; more than 57 µM in [1]; 0.129 µM in data set [6]; more than 57 µM in [2]; 0.095 µM in data set [7]; 0.095 µM in data set [8]. In addition, the Drug uptake entry in data set [3] and in data set [4] was “Active” each time.
As for `NS(=O)(=O)c1ccc(Cc2c(-c3cccc(-c4ccccc4F)c3)nn(-c3nc(C(=O)O)cs3)c2O)cc1`, the IC50 in data set [2] is more than 57 µM. The Drug uptake entry in data set [3] and in [4] was “Active” each time.
Regarding `O=C(O)c1csc(-n2nc(-c3cccc(-c4ccccc4F)c3)cc2O)n1`, the inhibition result in data set [9] and in [10] was “inactive” in each case. The results for the IC50 in data set [7] and in data set [8] were 0.095 µM and more than 57 µM, respectively.
`O=C(O)c1csc(-n2nc(-c3ccc(F)c(F)c3)cc2O)n1`: the inhibition result in [9] and in data set [10] was “inactive” each time. For the same compound, the IC50 in [7] was 0.15 µM; in [8], more than 57 µM.
On to `O=C(O)c1csc(-n2nc(-c3cc(F)cc(F)c3)cc2O)n1`, for which the inhibition result in [9] and in data set [10] was “inactive” each time. Besides, the IC50 in data set [7] is 0.11 µM; in data set [8], more than 57 µM.
On to `CC(=O)Nc1cc(-c2ccccc2)nn1-c1nc(C(=O)O)cs1`, for which the inhibition result in data set [9] and in data set [10] was “inactive” in each case. Moreover, the IC50 in data set [7] is 9.57 µM; in data set [8], more than 57 µM.
For `O=C(O)c1csc(-n2nc(-c3cccc(F)c3)cc2O)n1`, the inhibition entry in [9] and in data set [10] was “inactive” in each case. The IC50 in data set [7] was 0.162 µM; in data set [8] it was more than 57 µM.
For `O=C(O)c1csc(-n2nc(-c3ccccc3Cl)cc2C(F)(F)F)n1`, the inhibition entry in data set [9] and in data set [10] was “inactive” each time. Besides, the IC50 in data set [7] and in [8] was more than 57 µM each time.
For the compound `NS(=O)(=O)c1ccc(Cc2c(-c3cccc(-c4ccccc4)c3)nn(-c3nc(C(=O)O)cs3)c2O)cc1`, the values for the IC50 in data set [1] and in data set [2] were more than 57 µM and 47.4 µM, respectively. Also, the Drug uptake entry in [3] and in [4] was “Active” in each case.
In [1], `NS(=O)(=O)c1ccc(Oc2c(-c3cccc(-c4ccccc4)c3)nn(-c3nc(C(=O)O)cs3)c2C2CC2)cc1` gave an IC50 of more than 57 µM. Moreover, the Drug uptake result in data set [3] and in data set [4] was “Active” in each case.
Consider `NS(=O)(=O)c1ccc(Nc2cn(-c3nc(C(=O)O)cs3)nc2-c2cccc(-c3ccccc3)c2)cc1`, for which the values for the IC50 in data set [1] and in [2] were 37.8 µM and more than 57 µM, respectively. In addition, the Drug uptake result in [3] and in data set [4] was “Active” throughout.
For `O=C(O)c1csc(-n2nc(-c3ccccc3F)cc2O)n1`, the inhibition entry in data set [9] and in data set [10] was “inactive” each time. In addition, the IC50 was 0.134 µM in [7] and more than 57 µM in data set [8].
For the compound `O=C(O)c1csc(-n2nc(-c3ccncc3)cc2O)n1`, the inhibition result in [9] and in data set [10] was “inactive” in each case. Besides, the IC50 is 0.669 µM in data set [7] and more than 57 µM in data set [8].
For `NS(=O)(=O)c1ccc(Cc2c(-c3ccccc3)nn(-c3nc(C(=O)O)cs3)c2-c2cccnc2)cc1`, the IC50 in data set [1] and in data set [2] was more than 57 µM in each case. Also, the Drug uptake entry in data set [3] and in [4] was “Active” each time.
With `O=C1N[C@](c2ccc(N3CCOCC3)cc2)(c2ccsc2)CC(O)=C1Sc1ccccc1Cl`, the IC50 in [1] and in data set [2] was more than 57 µM throughout. In addition, the Drug uptake result in [3] and in data set [4] was “Active” each time.
Turning to `NS(=O)(=O)c1ccc(Cc2c(-c3cccc(-c4ccccc4)c3)nn(-c3nc(C(=O)O)cs3)c2C(F)(F)F)cc1`, the IC50 in data set [1] came to 48.6 µM; in [2], 33.5 µM. Besides, the Drug uptake entry in data set [3] and in data set [4] was “Active” each time.
`COc1ccc(-c2cc(O)n(-c3nc(C(=O)O)cs3)n2)cc1`: the inhibition result in data set [9] and in [10] was “inactive” throughout. Moreover, the figures for the IC50 in [7] and in [8] were 0.229 µM and more than 57 µM, respectively.
As for `Nc1c(Cc2ccc(S(N)(=O)=O)cc2)c(-c2cccc(-c3ccccc3)c2)nn1-c1nc(C(=O)O)cs1`, the IC50 in [1] is 26.8 µM; in [2] it was more than 57 µM. For the same compound, the Drug uptake entry in data set [3] and in data set [4] was “Active” each time.
As for `NS(=O)(=O)c1ccc(Cc2c(-c3cccc(Br)c3)nn(-c3nc(C(=O)O)cs3)c2O)cc1`, the concentration for half-maximal inhibition (IC50) is 1.51 µM in data set [6] and more than 57 µM in data set [2]. In addition, the Drug uptake result in data set [3] and in data set [4] was “Active” throughout.
With `O=C(O)c1csc(-n2nc(-c3ccc(F)cc3)cc2O)n1`, the inhibition entry in [9] and in data set [10] was “inactive” each time. Moreover, the IC50 in data set [7] is 0.095 µM; in data set [8] it was more than 57 µM.
In the case of `NS(=O)(=O)c1ccc(Cc2c(-c3ccccc3)nn(-c3nc(C(=O)O)cs3)c2-c2ccncc2)cc1`, the IC50 in data set [1] is more than 57 µM; in data set [6] it was 2.82 µM; in data set [2], more than 57 µM; in data set [7], 6.23 µM; in [8], 6.23 µM. Further, the Drug uptake entry in [3] and in data set [4] was “Active” throughout.
Consider `O=C(O)c1csc(-n2nc(-c3cccc(C(F)(F)F)c3)cc2O)n1`, for which the inhibition result in [9] and in data set [10] was “inactive” each time. For the same compound, the values for the IC50 in data set [7] and in data set [8] were 0.189 µM and more than 57 µM, respectively.
Take `NS(=O)(=O)c1ccc(Cc2c(-c3ccccc3)nn(-c3nc(C(=O)O)cs3)c2C2CC2)cc1`: the IC50 in [1] was 37.8 µM; in [2] it was more than 57 µM. In addition, the Drug uptake result in [3] and in data set [4] was “Active” each time.
Consider `O=C(O)c1csc(-n2nc(-c3ccccc3)cc2O)n1`, for which the inhibition result in data set [9] and in [10] was “inactive” in each case. The IC50 in data set [7] is 0.144 µM; in data set [8], more than 57 µM.
Consider `O=C(O)c1csc(-n2nc(-c3ccc(Cl)c(Cl)c3)cc2O)n1`, for which the inhibition entry in data set [9] and in data set [10] was “inactive” throughout. The figures for the IC50 in data set [7] and in [8] were 0.106 µM and more than 57 µM, respectively.
On to `Cc1cc(-c2ccccc2)nn1-c1nc(C(=O)O)cs1`, for which the inhibition entry in [9] and in [10] was “inactive” in each case. The 50% inhibitory concentration (IC50) in [7] is 15.4 µM; in data set [8], more than 57 µM.
Consider `O=C(O)c1csc(-n2nc(-c3cccc4ccccc34)cc2O)n1`, for which the inhibition result in [9] and in data set [10] was “inactive” throughout. Also, the IC50 in [7] is 0.213 µM; in data set [8], more than 57 µM.
For `O=C(O)c1csc(-n2nc(-c3ccccc3)cc2C(F)F)n1`, the inhibition entry in data set [9] and in [10] was “inactive” throughout. The half-inhibitory concentration (IC50) in data set [7] and in data set [8] was more than 57 µM throughout.
Regarding `Nc1cc(-c2ccccc2)nn1-c1nc(C(=O)O)cs1`, the inhibition result in data set [9] and in data set [10] was “inactive” each time. The results for the IC50 in data set [7] and in [8] were 26.7 µM and more than 57 µM, respectively.
As to `NS(=O)(=O)c1ccc(Cc2cn(-c3nc(C(=O)O)cs3)nc2-c2ccccc2)cc1`, the IC50 in data set [1] was more than 57 µM; in [2], more than 57 µM; in [7], 0.177 µM; in data set [8] it was 0.176 µM. Besides, the Drug uptake result in [3] and in data set [4] was “Active” in each case.
On to `NS(=O)(=O)c1ccc(Nc2cn(-c3nc(C(=O)O)cs3)nc2-c2ccccc2)cc1`, for which the IC50 in data set [1] and in data set [2] was more than 57 µM in each case. The Drug uptake entry in [3] and in data set [4] was “Active” throughout.
In the case of `O=C(O)c1csc(-n2nc(-c3ccccn3)cc2O)n1`, the inhibition entry in [9] and in data set [10] was “inactive” throughout. The IC50 in [7] was 1.02 µM; in data set [8], more than 57 µM.
Consider `O=C(O)c1csc(-n2nc(-c3cccc(Cl)c3)cc2O)n1`, for which the inhibition entry in data set [9] and in [10] was “inactive” each time. Besides, the results for the IC50 in data set [7] and in data set [8] were 0.168 µM and more than 57 µM, respectively.
On to `O=C(O)c1csc(-n2nc(-c3ccc(F)cc3F)cc2O)n1`, for which the inhibition entry in data set [9] and in data set [10] was “inactive” in each case. Further, the values for the IC50 in data set [7] and in data set [8] were 0.084 µM and more than 57 µM, respectively.
For `NS(=O)(=O)c1ccc(Cc2c(-c3ccccc3)nn(-c3nc(C(=O)O)cs3)c2CC2CC2)cc1`, the IC50 is more than 57 µM in data set [1] and 47.4 µM in [2]. In addition, the Drug uptake entry in [3] and in data set [4] was “Active” throughout.
